What was measured:
Assay type in all cases: cell-based
[1] = test system: human mammary luminal progenitor (LP) cells; assay: Live-cell imaging of LP-derived organoids during elongation phase (cell movement, bead displacement, duct elongation)
Description: Live cell imaging was performed using a Leica SP8 lightning confocal microscope with an on-stage incubation system (Ibidi) regulating CO2, O2, humidity and temperature. Organoids were imaged during elongation phase between day 7 and 9 with a time separation of 10 min between each acquired image. For visualization, nuclei were labelled with 10 μM sirDNA (Spirochrome AG) 3 hours prior to the measurements. Accordingly, organoids were excited at 633 nm and the fluorescent signal was collected around 674 nm using a HCX PL APO 10×/0.40 CS dry objective. Bead displacements/deformation fields were visualized using ImageJ 1.48v. First, the fluorescence signal of the fluorescent nuclei at the first time step was summed up along the z-axis to visualize the shape of the organoid. Second the fluorescence channel of the beads was summed along the z-axis and subsequently summed up over all time steps. At last, both calculated pictures were merged into one image. Bead tracking was calculated using Matlab R2020b. First, the fluorescence channel of the beads was masked by an intensity threshold to reduce the background. Second, bead positions are defined by taking the center of an interpolated intensity grid. Third, individual bead tracks were calculated by matching bead coordinates in three consecutive images. Thereby, beads touching the boundaries or beads to close to each other were excluded to guarantee a correct tracking.
Analysis for structure prevalence, type, size and complexity was performed with GraphPad Prism 8. Nuclei velocity within the organoid was calculated via optical flow using the in Matlab implemented Farneback algorithm. By defining the branch axis, the velocities were separated in a parallel and orthogonal component. The directionality of nuclei migration was defined by calculating the ratio of parallel and orthogonal component. Consequently, at directionality equal to one parallel and orthogonal component are at the same order of magnitude. At higher or lower values, either parallel or orthogonal velocity component dominates. In order to visualize the migration patterns of individual cells, cells were manually tracked. Therefore, each nucleus was tracked three times and the resulting average path was calculated.
Collagen degradation via MMPs was inhibited by using 10 μM Marimastat (Merck, 444289), which was added to the medium of elongating organoids prior to imaging. E-cadherin blocking was performed by addition of an E-cadherin blocking-antibody HECD1 in a dilution of 1:25 after 5 d of organoid culture.

[2] = test system: human mammary luminal progenitor (LP) cells; assay: Branched structure formation of single LP cells in collagen type I gels (carmine staining, quantification of structure type, size, complexity)
Description: Healthy mammary gland tissue was provided by the Nymphenburg Clinic for Plastic and Aesthetic Surgery and processed in accordance with the regulations of the ethics committee of the Ludwig-Maximilian University, Munich, Germany (proposal 19-989) as described previously^35,63. In brief, reduction mammoplasty tissue was minced with scalpels into 2-3 mm^3 pieces. Next, tissue was digested with 300 U/mL collagenase I and 100 U/mL hyaluronidase and 1 μg/mL insulin for approximately 16 hrs. Finally, fragments were either cryopreserved immediately or a single cell suspension was made using trypsin-EDTA and dispase. If cells were cryopreserved as fragments, they were turned into a single cell suspension upon thawing using trypsin-EDTA and dispase. Prior to experiments, single cell suspensions were filtered through a 40 μm cell strainer. Age and parity of donors used in this study are catalogued in Table 1 given directly below.
3D collagen type I gels were prepared as described previously^35,63 with modifications. Single cell suspensions were mixed with BLOM foundation, rat tail collagen type I (Corning) and neutralizing solution. The final collagen concentration was 1.3 mg/ml. If the pH of the solution was <7.4, the pH was adjusted by addition of NaOH (1 M) up to a volume of 1 μl per 100 μl polymerization solution. After polymerization for 1 hr, 2× concentrated full medium was added onto the gels in a 1:1 volume ratio to the gel. Gels were encircled with a pipette tip for detachment. For cells that had not been in culture previously, the first medium exchange (from now on with 1× concentrated medium) was done after 5 d and then every 2-3 d. In case of cells that had been in 2D culture before, the first medium exchange was done between 3 d and 5 d. For all experiments except ELDA, per 1 ml of gel, between 250 and 2000 LP cells were seeded. In case of B+ and LM cells, between 2000 and 7500 cells were seeded per 1 ml of gel.
Images of carmine stained structures were evaluated with ImageJ. The size of an organoid was determined with the ImageJ area tool. Here, all tips of the structure were virtually connected with the ImageJ area tool and size was defined as the area covered by the organoid. For assessment of complexity, the longest branch was identified within each structure. The hierarchy of all other branches relative to this longest branch was classified (see FIG. 6B).
Carmine staining solution was prepared with a concentration of 0.5 g/l carmine and 1.15 g/l aluminium potassium sulfate in distilled water. For staining of 3D structures, gels were fixed with 4% paraformaldehyde for 15 min and incubated with carmine staining solution overnight. Images were acquired on a Leica DM IL LED microscope using a HiPlan 10×/0.22 PH1 objective. Three PBS washing steps were performed in between all steps described above.

[3] = test system: human mammary luminal progenitor (LP) cells; assay: Immunofluorescence of polarization markers in LP-derived organoids; details: BLOM-medium without Y-27632
Description: 2D cells for immunofluorescence were cultured in 96-wells with optically clear bottom (PerkinElmer, 6005550). Immunofluorescence was performed as described previously^35,63. In brief, 2D cells or 3D cells (in collagen type I gels) were fixed with 4% paraformaldehyde for 15 min. Cells were permeabilized with 0.2% Triton X-100 for 2 min (2D) and 10 min (3D) respectively. Blocking was performed with 10% donkey serum in 0.1% BSA for 1 hr (2D) and overnight at 4° C. (3D) respectively. Primary antibodies in 0.1% BSA were incubated for 1 hr (2D) and overnight at 4° C. (3D) respectively. Next, DAPI (167 ng/ml) was added for 2 min (2D) and 10 min (3D), respectively. Finally, Aqua-Poy/Mount mounting medium (Polysciences, 18606) was added to preserve staining. Three PBS washing steps were performed in between all steps described above. Images of cells grown in 2D were acquired on an Axio Imager. A M2m imaging microscope was used with a 40× objective. Images of cells grown in 3D were acquired on FLUOVIEW FV1000 inverted confocal laser scanning microscope equipped with four laser lines (405, 488, 543, and 633 nm) using UPLSAPO 60×, 40× and 20× objective lenses. Images were processed with Gimp 2.8.22 and ImageJ 1.52i.

[4] = 10 μM Marimastat during branch elongation phase

## CNC(=O)[C@@H](NC(=O)[C@H](CC(C)C)[C@H](O)C(=O)NO)C(C)(C)C [Marimastat]
[1]; [4]
  duct elongation / invasion of branch tips (in words): stopped the branch tips from further invading the matrix
  general cytotoxic effect (in words): excluding a general cytotoxic effect

## Cc1ccc2c(c1)C(=O)[C@]1(O)CCN(c3ccc(N)cc3)C1=N2 [PAB, para-amino blebbistatin]
[2]; BLOM-medium without Y-27632, PAB added, donors M16, M28, M44
  branched structure phenotype when Y-27632 is replaced by PAB (in words): able to induce a phenotype similar to the one created by Y-27632

## C[C@@H](N)[C@H]1CC[C@H](C(=O)Nc2ccncc2)CC1 [Y-27632]
[3]
  apical-basal polarization of organoids (laminin, F-actin, lumen) (in words): polarization was disturbed in the absence of ROCK inhibition
[2]; BLOM-medium without Y-27632 (DMSO ctrl) vs with Y-27632 (5 μM), donors M35, M44, M45
  decrease in branched structure formation upon removal of Y-27632: 79%
[2]; BLOM-medium without Y-27632 (DMSO ctrl) vs with Y-27632, size = area covered by organoid
  change in size of branched structures upon removal of Y-27632: −66%
[2]; control organoids in BLOM-medium with Y-27632 (only 6% without Y-27632)
  organoids with tertiary or even more complex branches: 65%
[2]; medium deprived of Y-27632
  formation of elongated branched structures (in words): prevented the formation of elongated branched structures almost completely
[1]; in the presence of ROCK inhibitor, collagen gels spiked with fluorescent beads
  bead displacement / contractility (in words): not completely abolished, but limited to the front of elongating branches
[1]; under ROCK inhibition (with Y-27632), nuclear labelling
  directionality of cell migration within organoids (in words): primarily directed outwards in parallel to the axis of the extending branch
